One block for each compound: values may come before it. Active and inactive are the calls of the source. No cut-off for these calls is given here.
Assays:
Cricetinae gen. sp. [1] = test: Compound was tested for the change in liver cholesterol (CE) levels in hamster; assay type: functional, Cricetulus griseus
Cricetinae gen. sp. [2] = test: Compound was tested for the change in liver cholesterol (CE) levels in hamsters; assay type: functional, Cricetulus griseus
[3] = target: T1, Sterol O-acyltransferase 1 (Cricetulus griseus) (UniProt Q60457); test: Compound was tested for the change in serum cholesterol (SC) levels by the inhibition of ACAT in hamster at 50 mg/kg p.o.; NE=No effect; assay type: functional, organism-based; design: dose 50 mg/kg
T1 sequence (whole entry): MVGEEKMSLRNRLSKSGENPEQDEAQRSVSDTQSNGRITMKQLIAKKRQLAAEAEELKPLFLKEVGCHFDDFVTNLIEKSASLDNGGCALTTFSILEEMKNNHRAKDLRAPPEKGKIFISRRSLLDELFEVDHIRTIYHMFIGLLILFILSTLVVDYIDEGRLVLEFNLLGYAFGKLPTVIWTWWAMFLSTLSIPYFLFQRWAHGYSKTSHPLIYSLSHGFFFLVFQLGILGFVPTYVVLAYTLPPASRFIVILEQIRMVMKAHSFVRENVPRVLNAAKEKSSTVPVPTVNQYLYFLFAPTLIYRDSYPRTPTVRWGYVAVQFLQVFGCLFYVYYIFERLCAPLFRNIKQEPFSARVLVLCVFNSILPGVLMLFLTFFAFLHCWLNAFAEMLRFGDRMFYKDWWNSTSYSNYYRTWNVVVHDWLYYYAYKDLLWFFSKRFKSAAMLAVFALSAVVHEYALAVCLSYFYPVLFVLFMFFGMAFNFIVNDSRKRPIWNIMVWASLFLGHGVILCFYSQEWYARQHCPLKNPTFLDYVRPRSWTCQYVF

[4] = target: T1, Sterol O-acyltransferase 1 (Cricetulus griseus); test: Compound was tested for the change in liver cholesteryl ester (CE) levels by the inhibition of ACAT in hamster at 50 mg/kg p.o.; NE=No effect; assay type: functional, organism-based; design: dose 50 mg/kg
[5] = target: T1, Sterol O-acyltransferase 1 (Cricetulus griseus); test: Compound was tested for the change in serum cholesterol (SC) levels by the inhibition of ACAT in hamster at 50 mg/kg p.o.; assay type: functional, organism-based; design: dose 50 mg/kg
[6] = target: T1, Sterol O-acyltransferase 1 (Cricetulus griseus); test: Compound was tested for the change in liver cholesteryl ester (CE) levels by the inhibition of ACAT in hamster at 50 mg/kg p.o.; assay type: functional, organism-based; design: dose 50 mg/kg
Rattus norvegicus = organism: Rattus norvegicus; test: Compound was tested for the change in serum cholesterol (SC) level in cholesterol fed rat; assay type: functional
Canis familiaris = organism: Canis familiaris; test: Compound was tested for the change in serum cholesterol (SC) levels in cholesterol fed dog; assay type: functional; conditions: Canis lupus familiaris
Homo sapiens [7] = organism: Homo sapiens; test: Compound was tested for the reduction in total cholesterol; assay type: functional
Homo sapiens [8] = organism: Homo sapiens; test: Compound was tested for the reduction in low density lipoprotein cholesterol; assay type: functional
Monkey = test: Compound was tested for the change in serum cholesterol (SC) levels in cholesterol fed monkey; assay type: functional; conditions: Cercopithecidae, in Primates
Homo sapiens [9] = organism: Homo sapiens; test: Compound was tested for the reduction in high density lipoprotein cholesterol; assay type: functional
Homo sapiens [10] = organism: Homo sapiens; test: Compound was tested for the reduction in triglycerides; assay type: functional

Structure (SMILES): CC(=O)c1ccc([C@@H]2[C@@H](CCC(=O)c3ccccc3)C(=O)N2c2ccc(C(C)=O)cc2)cc1
ED50 (Cricetinae gen. sp. [1]): 1.9 mg/kg

Structure (SMILES): O=Cc1ccc([C@@H]2[C@@H](CC[C@@H](O)c3ccccc3)C(=O)N2c2ccc(C=O)cc2)cc1
ED50 (Cricetinae gen. sp. [1]): 5 mg/kg

Structure (SMILES): O=Cc1ccc([C@@H]2[C@@H](CC[C@H](O)c3ccccc3)C(=O)N2c2ccc(C=O)cc2)cc1
ED50 (Cricetinae gen. sp. [2]): 0.9 mg/kg

Structure (SMILES): COc1ccc([C@@H]2N(c3ccccc3)C(=O)C23CCC(c2ccc(Cl)cc2)CC3)cc1 (stereo in doubt; 17) [listing 1 of 2 here]
ED50 (Cricetinae gen. sp. [2]): 0.66 mg/kg

Structure (SMILES): COc1ccc([C@@H]2N(c3ccccc3)C(=O)C23CCC(c2ccc(Cl)cc2)CC3)cc1 (stereo in doubt; 18)
Change in cholesterol [5]: No effect | Change in cholesterol [6]: No effect

Structure (SMILES): O=C1[C@H](CC[C@H](O)c2ccc(F)cc2)[C@@H](c2ccc(O)cc2)N1c1ccc(F)cc1 [EZETIMIBE]
ED50 (Rattus norvegicus): 0.03 mg/kg | ED50 (Canis familiaris): 0.007 mg/kg | Mean (Homo sapiens [7]): -12.5% | ED50 (Cricetinae gen. sp. [1]): 0.04 mg/kg | Mean (Homo sapiens [8]): -16.9% | ED50 (Monkey): 0.0005 mg/kg | Mean (Homo sapiens [9]): 1.3% | Mean (Homo sapiens [10]): -5.7%

Next, values leading:

Change in cholesterol [3]: inactive | Change in cholesterol [4]: inactive
Structure (SMILES): COc1ccc([C@@H]2[C@@H](/C=C/Cc3ccccc3)C(=O)N2c2ccc(OC)cc2)cc1

Change in cholesterol [5]: -20% | Change in cholesterol [6]: -73%
Structure (SMILES): COc1ccc([C@@H]2[C@@H](/C=C\Cc3ccccc3)C(=O)N2c2ccc(OC)cc2)cc1

Change in cholesterol [6]: -78%
Structure (SMILES): O=C1[C@H](CCCc2ccccc2)[C@@H](c2ccc(O)cc2)N1c1ccc(O)cc1

Change in cholesterol [6]: -78%
Structure (SMILES): O=Cc1ccc([C@@H]2[C@@H](CCCc3ccc(O)cc3)C(=O)N2c2ccc(C=O)cc2)cc1

Change in cholesterol [6]: -68%
Structure (SMILES): O=Cc1ccc([C@@H]2[C@@H](CCCc3ccccc3)C(=O)N2c2ccc(O)cc2)cc1

Change in cholesterol [5]: -46% | Change in cholesterol [6]: -97%
Structure (SMILES): COc1ccc([C@@H]2N(c3ccccc3)C(=O)C23CCC(c2ccc(Cl)cc2)CC3)cc1 (stereo in doubt; 17) [listing 2 of 2 here]

Reference: ChEMBL document CHEMBL1139451, “The discovery of ezetimibe: a view from outside the receptor” (2004)
